Laboratory results published in publication PMC4503722, “Novel Phenotypic Outcomes Identified for a Public Collection of Approved Drugs from a Publicly Accessible Panel of Assays” (PLoS ONE, 2015).
Where two headings read alike, the source gives them in different places.

Legend:
[1] = system: endothelial tube formation in co-cultures of ECFCs and ADSCs treated with VEGF; experiment: cells; assay type: cell-based, human; conditions: for IC50: read-out: Anti-Angiogenesis
[2] = system: nuclear β-catenin in C2C12 cells; experiment: cells; assay type: cell-based
[3] = system: INS-1E cells; experiment: cells; assay type: cell-based, rat;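 on 5mMGluc INS1E SecretionMod IC50/EC50: secreted insulin quantified by homogeneous immunoassay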
[4] = system: NCI-H716 cells; experiment: cells; assay type: cell-based, Human
[5] = system: DLD-1; experiment: cells; assay type: cell-based
[6] = system: SW480; experiment: cells; assay type: cell-based; conditions: for Basal_Viability ATP SW480 IC50/EC50: assay number 24, basal
[7] = system: HCT116; experiment: cells; assay type: cell-based; conditions: for Basal_Viability ATP HCT116 IC50/EC50: assay number 25
[8] = system: HCT116 cells treated with a GSK3β inhibitor; experiment: cells; assay type: cell-based; conditions: for GSK3b inh pretreated_Viability ATP HCT116 IC50/EC50: assay number 26
[9] = system: Colo320; experiment: cells; assay type: cell-based; conditions: for Basal_Viability ATP Colo 320 IC50/EC50: assay number 27, basal
[10] = system: HT-29; experiment: cells; assay type: cell-based; conditions: assay number 28; basal
[11] = system: RKO; experiment: cells; assay type: cell-based; conditions: for Basal_Viability ATP RKO IC50/EC50: assay number 29, basal
[12] = system: SNU-C1; experiment: cells; assay type: cell-based; conditions: for Basal_Viability ATP SNU-C1 IC50/EC50: assay number 30, basal
[13] = system: ECFC/ADSC co-culture cell nuclei number
[14] = system: HeLa cells; experiment: cells; assay type: cell-based; conditions: for EC50: read-out: CellCycle G2/M
[15] = Homo sapiens, DLD-1, read-out: Basal_Viability ATP DLD-1
[16] = Mus musculus, C2C12, IC50 / EC50, C2C12 beta-catenin translocation, read-out: Wnt Pathway
[17] = Rattus norvegicus; IC50 / EC50; INS-1E; read-out: Insulin Secretion
[18] = Homo sapiens, HeLa, IC50 / EC50, HeLa
[19] = Homo sapiens, SW480, basal, read-out: Basal_Viability ATP SW480
[20] = Homo sapiens, HCT-116, basal, read-out: Basal_Viability ATP HCT116
[21] = Homo sapiens, HCT-116, GSK3b inhibitor pretreated, read-out: GSK3b inh pretreated_Viability ATP HCT116
[22] = read-out: Basal_Viability ATP HCT116

OCCOc1ccccc1 [NCGC00090731-08]
assay 1 Angio CD31 TubeArea max %inh ([1]; single concentration screen (2 and 10 μM), maximum of all test results, 0 = DMSO, 100 = positive control): 8.6% | assay 4 WntCondMedia bCatenin fluor/nucarea C2C12 max %stim ([2]; single concentration screen (2 and 10 μM), maximum of all test results): 0.5% | assay 7 5mMGluc INS1E InsulinRelease max %stim ([3]; single concentration screen (2 and 10 μM), 5 mM glucose, maximum of all test results): 0.2% | assay 11 hNCI-H716 GLP1 Secretion max %stim ([4]; single concentration screen (2 or 10 μM), maximum of all test results): 3.7%

O=C1NCN(c2ccccc2)C12CCN(CCCOc1ccc(F)cc1)CC2 [NCGC00024633-07]
5mMGluc_INS1E SecretionMod IC50/EC50 ([3]; assay number 8; 5 mM glucose): > 33.33 µM | Basal_Viability ATP DLD-1 IC50/EC50 ([5]; assay number 23, basal): 0.8817 µM | Basal_Viability ATP SW480 IC50/EC50 [6]: 4.608 µM | Basal_Viability ATP HCT116 IC50/EC50 ([7]; basal): 8.82 µM | GSK3b inh pretreated_Viability ATP HCT116 IC50/EC50 ([8]; GSK3b inhibitor pretreated): 5.333 µM | Basal_Viability ATP Colo 320 IC50/EC50 [9]: 11.821 µM | Basal_Viability ATP HT-29 IC50/EC50 [10]: 2.458 µM | Basal_Viability ATP RKO IC50/EC50 [11]: 5.3051 µM | Basal_Viability ATP SNU-C1 IC50/EC50 [12]: 0.2416 µM

Clc1ccc(COC(Cn2ccnc2)c2ccc(Cl)cc2Cl)cc1.O=[N+]([O-])O (stereo not drawn) [NCGC00018258-10]
hNCI-H716 GLP1 Secretion IC50/EC50 ([4]; assay number 12): 25.6136 µM | VEGF_ADSC\ECFC Angio Hoechst NucArea IC50/EC50 [13]: 9.932 µM

COc1ccc2c(c1)C(=O)N(CCc1ccc(S(=O)(=O)NC(=O)NC3CCCCC3)cc1)C(=O)C2(C)C [gliquidone, reference compound]
EC50 ([2]; Mus musculus, C2C12, Table 2, C2C12, […], 20 / 20.1 coded, read-out: Wnt pot. EC50): > 10 µM | EC50 ([3]; Rattus norvegicus, INS-1E; read-out: Ins. sec. EC50): 0.23 µM | EC50 ([3]; Rattus norvegicus, INS-1E; read-out: Insulin Secretion): 0.23 µM | IC50 ([5]; Homo sapiens, DLD-1, 72 h, Table 2, 72 h, Cell TiterGlo, non-adherent, 20 coded, read-out: DLD-1 viab. IC50): 5.1 µM | IC50 ([5]; Homo sapiens, DLD-1, basal, DLD-1, read-out: Basal_Viability ATP DLD-1): 5.11 µM | IC50 ([6]; Homo sapiens, SW480, 72 h, Table 2, 72 h, Cell TiterGlo, non-adherent, 20 coded, read-out: SW480 viab. IC50): 5.5 µM | IC50 ([6]; Homo sapiens, SW480, basal, SW480, read-out: Basal_Viability ATP SW480): 5.5 µM | IC50 ([7]; Homo sapiens, HCT-116, 72 h, read-out: HCT-116 viab. IC50, Table 2, basal, 72 h, Cell TiterGlo, non-adherent, 20 coded): 10.1 µM | IC50 ([7]; Homo sapiens, HCT-116, basal, HCT116, read-out: Basal_Viability ATP HCT116): 10.1 µM | IC50 ([8]; Homo sapiens, HCT-116, read-out: HCT-116 (GSK3β) viab. IC50, Table 2, GSK3β inhibitor LY2090314 20 nM, 72 h, Cell TiterGlo, 20 coded): 7 µM | IC50 ([8]; Homo sapiens, HCT-116, HCT116 pretreated with GSK3b inhibitor, read-out: GSK3b inh pretreated_Viability ATP HCT116): 7.03 µM

CN(C)c1ccc2nc3ccc(=[N+](C)C)cc-3sc2c1 [Methylene blue]
EC50 ([2]; Mus musculus, C2C12, read-out: Wnt Pathway): > 10 µM | EC50 ([3]; Rattus norvegicus, INS-1E, read-out: Insulin Secretion): > 10 µM | IC50 [5, 15]: > 20 µM | IC50 ([6]; Homo sapiens, SW480, read-out: Basal_Viability ATP SW480): 2.68 µM | IC50 ([7]; Homo sapiens, HCT-116, read-out: Basal_Viability ATP HCT116): 2.93 µM | IC50 ([8]; Homo sapiens, HCT-116, read-out: GSK3b inh pretreated_Viability ATP HCT116): 1.39 µM

CC(=O)O[C@@]12CO[C@@H]1C[C@H](O)[C@@]1(C)C(=O)[C@H](O)C3=C(C)[C@@H](OC(=O)[C@H](O)[C@@H](NC(=O)OC(C)(C)C)c4ccccc4)C[C@@](O)([C@@H](OC(=O)c4ccccc4)[C@H]21)C3(C)C [NCGC00181306-04]
VEGF_ADSC\ECFC Angio CD31 TubeArea IC50/EC50 [1]: 0.001 µM | WntCondMedia_bCatenin C2C12 IC50/EC50 ([2]; assay number 5, concentration response): 0.0652 µM | Hela CellCycMod PI 2N IC50/EC50 ([14]; assay number 14, 2N): 0.0031 µM | Hela CellCycMod PI S Phase IC50/EC50 ([14]; assay number 15, S phase): > 10 µM | Hela CellCycMod PI 4N IC50/EC50 ([14]; assay number 16, 4N): 0.00335 µM | Hela CellCycMod PI MI IC50/EC50 ([14]; assay number 17, MI): 0.00317 µM | Hela CellCycMod PI Cell Number IC50/EC50 ([14]; assay number 18, cell number): 0.001 µM | Basal_Viability ATP SW480 IC50/EC50 [6]: 0.001 µM | Basal_Viability ATP HCT116 IC50/EC50 ([7]; basal): 0.001 µM | GSK3b inh pretreated_Viability ATP HCT116 IC50/EC50 ([8]; GSK3b inhibitor pretreated): 0.001 µM | Basal_Viability ATP Colo 320 IC50/EC50 [9]: 0.001 µM | Basal_Viability ATP HT-29 IC50/EC50 [10]: 0.001 µM | Basal_Viability ATP RKO IC50/EC50 [11]: 0.001 µM | Basal_Viability ATP SNU-C1 IC50/EC50 [12]: > 20 µM | VEGF_ADSC\ECFC Angio Hoechst NucArea IC50/EC50 [13]: > 10 µM

CCN(CC)CCCC(C)Nc1c2ccc(Cl)cc2nc2ccc(OC)cc12 (stereo not drawn) [Mepacrine]
EC50 [2, 16]: > 10 µM | EC50 [3, 17]: 4.07 µM | EC50 [14, 18]: > 10 µM | IC50 [5, 15]: 7.15 µM | IC50 [6, 19]: 3.6 µM | IC50 [7, 20]: 5.81 µM | IC50 [8, 21]: 4.48 µM | IC50 ([9]; Homo sapiens, COLO 320, read-out: Basal_Viability ATP Colo 320): 8.44 µM | IC50 ([11]; Homo sapiens, RKO, read-out: Basal_Viability ATP RKO): 3.42 µM | IC50 ([12]; Homo sapiens, SNU-C1, basal, read-out: Basal_Viability ATP SNU-C1): 3.84 µM

O=C(CCBr)N1CCN(C(=O)CCBr)CC1 [Abbott brand of pipobroman]
IC50 [1]: 1.37 µM | EC50 ([2]; read-out: Wnt Pathway): > 10 µM | EC50 ([3]; read-out: Insulin Secretion): > 10 µM | EC50 [14]: > 10 µM | IC50 ([5]; read-out: Basal_Viability ATP DLD-1): > 20 µM | IC50 ([6]; read-out: Basal_Viability ATP SW480): > 20 µM | IC50 [7, 22]: > 20 µM | IC50 ([8]; read-out: GSK3b inh pretreated_Viability ATP HCT116): 14 µM

Cc1ccc(CCn2c3c(c4cc(Cl)ccc42)CN(C)CC3)cn1 [Dorastine]
IC50 ([1]; Homo sapiens, IC50 / EC50, endothelial tube area, ADSC/ECFC co-culture): > 10 µM | EC50 [2, 16]: > 10 µM | EC50 [3, 17]: 4.2 µM | EC50 [14, 18]: > 10 µM | IC50 ([5]; Homo sapiens, DLD-1, basal, read-out: Basal_Viability ATP DLD-1): > 20 µM | IC50 [6, 19]: 9.46 µM | IC50 [7, 20]: 13.4 µM | IC50 [8, 21]: > 20 µM

CNC(=O)c1cc(Oc2ccc(NC(=O)Nc3ccc(Cl)c(C(F)(F)F)c3)cc2)ccn1 [Sorafenib, reference compound]
activity in the Wnt potentiation module (in words) [2]: None of these agents, however, possessed appreciable activity

Oc1c(Cl)cc(Cl)c(Cl)c1Cc1c(O)c(Cl)cc(Cl)c1Cl
EC50 ([2]; read-out: Wnt Pathway): > 10 µM | EC50 ([3]; read-out: Insulin Secretion): > 10 µM | EC50 ([4]; read-out: GLP 1 Secretion): > 10 µM | EC50 [14]: > 10 µM | IC50 [7, 22]: 0.0312 µM

Cc1ccc(-n2nc(C(C)(C)C)cc2NC(=O)Nc2ccc(OCCN3CCOCC3)c3ccccc23)cc1 [NCGC00241104-02]
5mMGluc_INS1E SecretionMod IC50/EC50 ([3]; assay number 8; 5 mM glucose): > 33.33 µM

C[C@@H](C1=C(CCN(C)C)Cc2ccccc21)c1ccccn1.O=C(O)/C=C\C(=O)O [NCGC00025158-02]
5mMGluc_INS1E SecretionMod IC50/EC50 ([3]; assay number 8; 5 mM glucose): 8.4103 µM
